Data from patent publication US6458760B1, “Method for treating tissue damaged from ischemia” (Henry Ford Health System, priority 1998, dated 2002).
Residues, ends and D or L forms follow the SMILES beside them. *: point of attachment. Cbz = O=C(OCc1ccccc1)*; CHN2 = [N-]=[N+]=C*; Bn = c1ccc(C*)cc1

How the values were obtained:
[1] = test system: Wistar rats with MCA occlusion; experiment: Neurological function on four point scale (Bederson) after 3 h MCA occlusion; type: in vivo, rat
Method: (§1) CP-1 dissolved in 1% DMSO and isotonic saline was given intravenously to Wistar rats (15 μl/min) at a concentration of 50 μM for four hours beginning at the end of three hours of MCA occlusion, in accordance with the protocol described hereinabove. Control animals underwent a similar protocol, but they had injected therein a 1% DMSO/Saline as the vehicle for four hours beginning at the end of a three hour MCA occlusion. All animals which survived 7 days were sacrificed and the infarct volume was measured 7 days after the MCA occlusion.
On the first day and on the seventh day after occlusion, the neurological function was determined on a four point scale (0, 1, 2, 3,) as described in an article by Bederson, et al. in Stroke, 1986, 17:472-476, the contents of which are incorporated by reference.
The rats were placed on large sheet of soft, plastic coated paper (such as counter protection paper) which they could potentially firmly grip with their claws. The tail of the rats were held by hand, and gentle lateral pressure was applied behind the rat's shoulder until it was noticed that the forelimbs slid several inches. This maneuver was repeated several times in each direction. […] (These rats were severely dysfunctional).
These values are the mean score ±SEM of the results from treatment on control animals. P≦0.05 according to the Mann Whitney Rank Sum test.

Cathepsin L = Cathepsin L (Homo sapiens, UniProt P07711); experiment: Cathepsin L inactivation rate, fluorimetric progress curves; type: biochemical; details: second order inactivation rate constant corrected for substrate; substrate Z-Phe-Arg-AMC; pH 5.4, 30° C.
Cathepsin L, sequence (P07711 114-333, species assumed): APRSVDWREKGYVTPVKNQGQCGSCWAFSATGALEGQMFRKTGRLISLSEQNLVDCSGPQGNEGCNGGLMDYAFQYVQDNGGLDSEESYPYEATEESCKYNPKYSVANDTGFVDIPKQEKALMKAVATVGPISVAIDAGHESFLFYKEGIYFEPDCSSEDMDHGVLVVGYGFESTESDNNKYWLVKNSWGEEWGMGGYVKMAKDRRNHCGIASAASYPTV
Method: (§2) (“Tian, et al.”) the contents of which are incorporated by reference. More specifically, the value of kobs is given by the slope of a plot of ln [P]∞−[p]t versus t (time). The apparent second-order rate contact for inactivation, k2app was calculated as kobs/[I]. The inactivation-rates (kobs) in the presence of substrate and for different inhibitor concentrations for calpain, cathepsin B and cathepsin L are determined according to the method of Tian, et al. However, k2app is corrected for the presence of substrate (s) to give the second order rate constant k^12app, calculated as k^12app=k2app (1+[s]/Km).
Cathepsins B and L were preactivated with […] DTT in 50 mM sodium acetate buffer, pH 5.4, 1 mM EDTA for 2 h at 4° C. and assayed in the same buffer with 0.01% Brij [poly(oxyethylene) glycol dodecyl ether]. 5 μM (final concentration) CBZ-Phe-Arg-AMC was used as substrate for both for cathepsins B and L. The inhibitors (0.1-1 μM) and substrate were added to the reaction mixture to incubate for 5 min in a cuvette thermostated at 30° C. Then, approximately 0.4 nM and 0.1 nM final concentration of cathepsin B and cathepsin L, respectively, were used to initiate the reaction. […] The progress curves were analyzed over at least 3 half lives to calculate the rate constants of inactivation in accordance with the procedure described by Crawford, C. Mason, R. W., Wilkström, P., and Shaw, E. in an article entitled “The design of peptidyldiazomethane inhibitors to distinguish between the cysteine proteinases calpain II, cathepsin L and cathepsin B.”, Biochem. J. 1988, 253, 751-758, the contents of which are incorporated by reference. The rates of inactivation of various substrates are tabulated hereinbelow.

Cathepsin B [2] = target: Cathepsin B (Homo sapiens, UniProt P07858); experiment: Cathepsin B inactivation rate, fluorimetric progress curves; type: biochemical; details: second order inactivation rate constant corrected for substrate; pH 5.4, 30° C.
Method: as §2
Cathepsins B and L were preactivated with […] DTT in 50 mM sodium acetate buffer, pH 5.4, 1 mM EDTA for 2 h at 4° C. and assayed in the same buffer with 0.01% Brij [poly(oxyethylene) glycol dodecyl ether]. […] The inhibitors (0.1-1 μM) and substrate were added to the reaction mixture to incubate for 5 min in a cuvette thermostated at 30° C. Then, approximately 0.4 nM and 0.1 nM final concentration of cathepsin B and cathepsin L, respectively, were used to initiate the reaction. […] The progress curves were analyzed over at least 3 half lives to calculate the rate constants of inactivation in accordance with the procedure described by Crawford, C. Mason, R. W., Wilkström, P., and Shaw, E. in an article entitled “The design of peptidyldiazomethane inhibitors to distinguish between the cysteine proteinases calpain II, cathepsin L and cathepsin B.”, Biochem. J. 1988, 253, 751-758, the contents of which are incorporated by reference. The rates of inactivation of various substrates are tabulated hereinbelow.

cathepsin B [3] = target: T1, cathepsin B (Rattus norvegicus, UniProt P00787); experiment: Cathepsin B activity in brain homogenates after 2 h MCA occlusion and infusion; type: in vivo
T1 construct: the brains were extracted and separated with right and left, cortical and subcortical regions and immediately frozen in liquid nitrogen; from tissue; host or cells: rat brain (cortical and subcortical regions), homogenate
T1 sequence (P00787 80-333): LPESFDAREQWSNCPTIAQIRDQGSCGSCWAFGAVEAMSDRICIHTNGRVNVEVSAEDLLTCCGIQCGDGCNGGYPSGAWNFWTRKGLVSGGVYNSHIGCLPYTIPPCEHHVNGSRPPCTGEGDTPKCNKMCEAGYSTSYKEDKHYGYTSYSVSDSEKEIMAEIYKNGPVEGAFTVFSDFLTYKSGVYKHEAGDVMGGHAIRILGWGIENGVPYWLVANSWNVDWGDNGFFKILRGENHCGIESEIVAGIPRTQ
Method: The protocol of Example 6 was followed except as follows: the rats under went two hours of MCA occlusion, they were administered either CP-1 (50 μM) or 1% DMSO/saline for four hours after reperfusion and the rats were sacrificed after 48 hours of survival.
At that time, the brains were extracted and separated with right and left, cortical and subcortical regions and immediately frozen in liquid nitrogen. The samples were homogenized with buffer, titrated, and then reacted with the substrate CBZ-Arg-Arg-AMC with the resultant fluorescence measured with a fluorophotometer. Activity is expressed in units of enzyme activity per mg of soluble brain protein (mean +SEM).

[4] = Loss of body weight after MCA occlusion (Example 8); type: in vivo, rat
Method: The animal is able to move about and take water as needed. However, animals with severe stroke that are not able to maintain intake of water are supplemented with daily subcutaneous Lactated Ringers solution. Daily body weights are followed to assess nutritional status.
as §1
The % loss of body weight from CP-1 treated animals and the control group on Day 1 and Day 7 are tabulated hereinbelow.

Cathepsin L k′2app (Cathepsin L): 1,000,000 M^−1S^−1 | Cathepsin B k′2app (Cathepsin B [2]): 8,800 M^−1S^−1 | cathepsin B activity in the subcortical regions versus vehicle (cathepsin B [3]; 50 μM infusion after 2 h MCA occlusion): significantly lower
SMILES: [N-]=[N+]=CC(=O)C(COCc1ccccc1)NC(=O)C(Cc1ccccc1)NC(=O)OCc1ccccc1 (stereo not drawn) [CP-1, benzyloxycarbonyl-Phe-Ser(OBz)-CHN2] (Cbz-Phe-Ser(Bn)-CHN2; configuration not given here)
Functional Score Day 7 ([1]; 50 μM i.v. 4 h after 3 h MCA occlusion, scale 0-3, mean ± SEM, control 1.9 ± 0.3): 0.9 ± 0.2 | Functional Score Day 1 ([1]; 50 μM i.v. 4 h after 3 h MCA occlusion, scale 0-3, mean ± SEM, control 3 ± 0): 2.1 ± 0.6 | reducing the neurological deficits due to the occlusion ([1]; 50 μM, 3 hour MCA occlusion): effective in reducing the neurological deficits | Cathepsin B activity, Left Cortex (cathepsin B [3]; 50 μM i.v. 4 h after 2 h MCA occlusion, 48 h survival, mean ± SEM, control 0.142 ± 0.02): 0.106 ± .01 units of enzyme activity per mg of soluble brain protein | Cathepsin B activity, Left Subcortex (cathepsin B [3]; 50 μM i.v. 4 h after 2 h MCA occlusion, 48 h survival, mean ± SEM, control 0.147 ± 0.02, p < 0.05): 0.084 ± .01 units of enzyme activity per mg of soluble brain protein | Cathepsin B activity, Right Cortex (cathepsin B [3]; 50 μM i.v. 4 h after 2 h MCA occlusion, 48 h survival, mean ± SEM, control 0.181 ± 0.04): 0.113 ± 0.01 units of enzyme activity per mg of soluble brain protein | Cathepsin B activity, Right Subcortex (cathepsin B [3]; 50 μM i.v. 4 h after 2 h MCA occlusion, 48 h survival, mean ± SEM, control 0.198 ± 0.03, p < 0.05): 0.113 ± 0.02 units of enzyme activity per mg of soluble brain protein | % loss of body weight Day 1 ([4]; 50 μM i.v. 4 h, Example 8, control 19 ± 2.0): 16 ± 1.4% | % loss of body weight Day 7 ([4]; 50 μM i.v. 4 h, Example 8, control 32 ± 3.0): 28 ± 3.4% | loss of mean body weight, treated versus control ([4]; Day 1 and Day 7): no significant difference
